Source: ChEMBL document CHEMBL3585324, “Suncheonosides A-D, Benzothioate Glycosides from a Marine-Derived Streptomyces sp” (J Nat Prod, 2015)
The source made the active and inactive calls. The calls are words filed in the database; no cut-off is given here.

Key:
Mesenchymal stem cell [1] = experiment: (§1) Antidiabetic activity against IDX medium-treated human bone marrow mesenchymal stem cells assessed as induction of adipogenesis at 10 uM after 6 days by oil red o/hematoxylin staining-based inverted-phase microscopic analysis relative to IDX medium-treated control; format: functional
Mesenchymal stem cell [2] = experiment: Antidiabetic activity against IDX medium-treated human bone marrow mesenchymal stem cells assessed as induction of adiponectin production during adipogenesis after 6 days by ELISA; format: functional
[3] = Cytotoxicity against human bone marrow mesenchymal stem cells assessed as cell viability up to 100 uM after 48 hrs by WST-1 assay; format: cell-based
[4] = as §1; format: functional, Mesenchymal stem cell
[5] = Antidiabetic activity against IDX medium-treated human bone marrow mesenchymal stem cells assessed as induction of adiponectin production during adipogenesis after 6 days by ELISA relative to glibenclamide; format: functional, Mesenchymal stem cell
Mesenchymal stem cell [6] = experiment: Antidiabetic activity against IDX medium-treated human bone marrow mesenchymal stem cells assessed as induction of adiponectin production during adipogenesis at 60 to 100 uM after 6 days by ELISA relative to IDX medium-treated control; format: functional

Structure (SMILES) | Activity (Mesenchymal stem cell [1]) | Activity (Mesenchymal stem cell [2]) | Activity [3] | Activity [4] [%] | %max [5] [%] | Activity (Mesenchymal stem cell [6])
COc1c(C)c(O[C@@H]2O[C@@H](C)[C@H](O)[C@@H](O)[C@H]2O)c(C)c(C(C)C)c1C(=O)SC | Active | – | – | – | – | –
COc1ccc(Cl)cc1C(=O)NCCc1ccc(S(=O)(=O)NC(=O)NC2CCCCC2)cc1 | – | Dose-dependent effect | – | – | – | –
COc1c(C)c(O[C@@H]2O[C@@H](C)[C@H](O)[C@@H](O)[C@H]2O)c(C(=O)SC)c(C(C)C)c1C | – | Dose-dependent effect | Non-toxic | 65 | 47 | –
CSC(=O)c1c(O[C@@H]2O[C@@H](C)[C@H](O)[C@@H](O)[C@H]2O)c(C)c(O[C@@H]2O[C@@H](C)[C@H](O)[C@@H](O)[C@H]2O)c(C)c1C(C)C | – | Dose-dependent effect | Non-toxic | 75 | 38 | –
CSC(=O)c1c(O)c(C)c(O)c(C)c1C(C)C | – | – | Non-toxic | – | – | inactive
CSC(=O)c1c(O[C@@H]2O[C@@H](C)[C@H](O)[C@@H](O)[C@H]2O)c(C)c(O)c(C)c1C(C)C | – | Dose-dependent effect | Non-toxic | 107 | 44 | –
